According to ChEMBL document CHEMBL2034840, “Automated generation of turn mimetics: proof of concept study for the MC4 receptor” (Bioorg Med Chem, 2012):

Biological target: Melanocortin receptor 4 (Homo sapiens, UniProt P32245)
Assay: Displacement of [125I]NDPMSH from human MC4 receptor expressed in HEK293 cells after 2 hrs by liquid scintillation counting
Format: cell-based

Melanocortin receptor 4, sequence (P32245 whole entry): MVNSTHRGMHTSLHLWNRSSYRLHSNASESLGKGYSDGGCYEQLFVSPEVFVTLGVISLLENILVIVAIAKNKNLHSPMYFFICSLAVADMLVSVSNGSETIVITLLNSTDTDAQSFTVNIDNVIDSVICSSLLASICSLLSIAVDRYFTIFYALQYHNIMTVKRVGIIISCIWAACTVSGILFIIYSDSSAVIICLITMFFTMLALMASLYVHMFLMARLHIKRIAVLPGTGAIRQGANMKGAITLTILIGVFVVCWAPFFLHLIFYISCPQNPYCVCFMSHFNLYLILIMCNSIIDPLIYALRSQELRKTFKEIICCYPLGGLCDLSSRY

Row | SMILES | Ki [nM] | Ki (hek293) [nM]
1 | O=C(NCCCc1ccccc1)[C@H]1CNC[C@H]1C(=O)NCc1ccc(C(F)(F)F)cc1 | 5800 | 
2 | O=C(CNC(=O)[C@H]1CNC[C@H]1C(=O)NCCc1c[nH]c2ccccc12)c1ccccc1 | 5500 | 
3 | O=C(NCc1ccccc1)[C@H]1CNC[C@H]1C(=O)NCCc1c[nH]c2ccccc12 | 5500 | 
4 | O=C(NCc1ccccc1)[C@@H]1CNC[C@H]1C(=O)NCc1ccccc1 | 900 | 
5 | O=C(NCCc1ccccc1)[C@@H]1CNC[C@H]1C(=O)NCc1ccccc1 | 1000 | 
6 | NCCNC(=O)[C@@H]1CNC[C@H]1C(=O)NC(=O)c1ccccc1 | 5300 | 
7 | O=C(NCc1ccccc1)[C@@H]1CNC[C@H]1C(=O)Nc1cccc(-c2ccccc2)c1 | 6600 | 
8 | O=C(NCCc1ccccc1)[C@H]1CNC[C@H]1C(=O)NC1CCN(Cc2ccccc2)C1 (mixture of isomers) |  | 5000
9 | O=C(NCCc1cccc(F)c1)[C@H]1CN(CC2CC2)C[C@H]1C(=O)NC1CCN(Cc2ccccc2)C1 (mixture of isomers) | 1800 | 
10 | O=C(NCCc1cccc(Cl)c1)[C@H]1CN(CC2CC2)C[C@H]1C(=O)NC1CCN(Cc2ccccc2)C1 (mixture of isomers) | 670 | 
11 | O=C(NCCc1ccc(Cl)cc1)[C@H]1CN(CC2CC2)C[C@H]1C(=O)NC1CCN(Cc2ccccc2)C1 (mixture of isomers) | 380 | 
12 | O=C(NCCc1ccc(Cl)cc1Cl)[C@H]1CN(CC2CC2)C[C@H]1C(=O)NC1CCN(Cc2ccccc2)C1 (mixture of isomers) | 160 | 
13 | O=C(NCc1cccc(Cl)c1)[C@H]1CN(CC2CC2)C[C@H]1C(=O)NC1CCN(Cc2ccccc2)C1 (mixture of isomers) | 400 | 
14 | O=C(NCc1ccc(Cl)cc1Cl)[C@H]1CN(CC2CC2)C[C@H]1C(=O)NC1CCN(Cc2ccccc2)C1 (mixture of isomers) | 70 | 
15 | O=C(NCCc1ccccc1)[C@H]1CN(CC2CC2)C[C@H]1C(=O)NC1CCN(Cc2ccccc2)C1 (mixture of isomers) | 2600 | 
16 | O=C(NCCc1ccccc1)[C@H]1CN(CCO)C[C@H]1C(=O)NC1CCN(Cc2ccccc2)C1 (mixture of isomers) | 6200 | 
17 | O=C(NCCc1ccccc1)[C@H]1CN(CCOc2ccccc2)C[C@H]1C(=O)NC1CCN(Cc2ccccc2)C1 (mixture of isomers) | 1000 | 
18 | O=C(NCCc1ccccc1)[C@H]1CNC[C@H]1C(=O)NC1CCN(Cc2ccccc2)C1 (stereo in doubt; 3a) | 5000 | 
